Entries after “also recorded” stand apart in the source; their conditions may differ. Non-standard residues stand in square brackets, D forms with d. Residues, ends and D or L forms follow the SMILES beside them. sY = N[C@@H](Cc1ccc(OS(=O)(=O)O)cc1)C(=O)O
What was measured:
XA21 [1] = target: T1, XA21 (Oryza sativa subsp. indica, UniProt Q1MX30); experiment: cell-based; type: cell-based, Oryza sativa ssp. japonica
Arabidopsis seedlings [2] = test system: Arabidopsis seedlings; parameters: species or system Arabidopsis thaliana; settings: in vivo
XA21 [3] = target: T1, XA21; type: cell-based, Oryza sativa ssp. japonica
tpst-1 seedlings = test system: tpst-1 seedlings; parameters: species or system Arabidopsis thaliana; settings: in vivo
XA21 [4] = target: T1, XA21; type: cell-based, Oryza sativa ssp. japonica; remark: listed apart in the source
rice seedlings = test system: rice seedlings; parameters: species or system Oryza sativa sp. japonica; settings: in vivo
Arabidopsis seedlings [5] = test system: Arabidopsis seedlings; parameters: species or system Arabidopsis thaliana; settings: in vivo; remark: listed apart in the source

T1 sequence (Q1MX30 24-1025 limits assumed): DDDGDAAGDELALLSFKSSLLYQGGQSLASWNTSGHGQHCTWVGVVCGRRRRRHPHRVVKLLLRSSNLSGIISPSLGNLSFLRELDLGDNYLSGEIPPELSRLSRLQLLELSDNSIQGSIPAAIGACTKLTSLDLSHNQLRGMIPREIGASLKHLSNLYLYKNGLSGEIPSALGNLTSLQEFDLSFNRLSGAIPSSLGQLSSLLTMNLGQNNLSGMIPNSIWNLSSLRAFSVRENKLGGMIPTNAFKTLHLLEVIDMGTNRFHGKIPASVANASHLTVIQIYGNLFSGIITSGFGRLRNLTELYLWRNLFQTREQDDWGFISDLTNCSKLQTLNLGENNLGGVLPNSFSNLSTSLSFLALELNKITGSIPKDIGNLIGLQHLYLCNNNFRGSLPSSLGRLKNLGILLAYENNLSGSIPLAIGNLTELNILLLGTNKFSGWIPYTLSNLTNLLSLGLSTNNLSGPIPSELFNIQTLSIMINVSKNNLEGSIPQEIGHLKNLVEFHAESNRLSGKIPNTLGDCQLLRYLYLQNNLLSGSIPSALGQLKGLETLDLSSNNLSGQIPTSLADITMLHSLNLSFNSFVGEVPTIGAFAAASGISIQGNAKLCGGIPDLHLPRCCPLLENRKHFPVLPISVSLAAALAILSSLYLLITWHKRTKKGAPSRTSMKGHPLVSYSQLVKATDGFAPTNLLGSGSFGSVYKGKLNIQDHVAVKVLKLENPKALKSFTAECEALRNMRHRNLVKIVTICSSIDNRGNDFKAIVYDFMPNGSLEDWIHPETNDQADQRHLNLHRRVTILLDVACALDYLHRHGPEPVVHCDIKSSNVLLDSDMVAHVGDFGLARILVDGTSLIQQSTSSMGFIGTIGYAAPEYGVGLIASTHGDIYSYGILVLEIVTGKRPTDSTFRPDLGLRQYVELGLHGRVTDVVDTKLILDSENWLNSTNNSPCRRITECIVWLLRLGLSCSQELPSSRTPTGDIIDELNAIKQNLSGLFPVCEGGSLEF

## CC(C)C[C@H](N)C(=O)N[C@@H](Cc1c[nH]c2ccccc12)C(=O)N[C@@H](CCCCN)C(=O)N[C@@H](Cc1c[nH]cn1)C(=O)N[C@H](C(=O)NCC(=O)NCC(=O)NCC(=O)N[C@@H](CC(=O)O)C(=O)N[C@@H](Cc1ccc(OS(=O)(=O)O)cc1)C(=O)N1CCC[C@H]1C(=O)N1CCC[C@H]1C(=O)N1CCC[C@H]1C(=O)NCC(=O)N[C@@H](C)C(=O)N[C@@H](CC(N)=O)C(=O)N1CCC[C@H]1C(=O)N[C@@H](CCCCN)C(=O)N[C@@H](Cc1c[nH]cn1)C(=O)N[C@@H](CC(=O)O)C(=O)N1CCC[C@H]1C(=O)N1CCC[C@H]1C(=O)N1CCC[C@H]1C(=O)N[C@@H](CCCNC(=N)N)C(=O)O)C(C)C [RaxX24-sY]
XA21 [1]
  EC50: ~30 nM
  XA21-mediated defense responses (ability to activate XA21-dependent signaling): trigger XA21-mediated defense responses
  total ROS production over 3 h: confirmed

## LWKHVGGGDY^SPPPGANTKHDPPPK [RaxX24-Xe-sY]
Arabidopsis seedlings [2]
  root growth promotion: promoted root growth on Arabidopsis seedlings in a manner similar to that of RaxX21-sY

## CC(C)C[C@H](NC(=O)[C@H](CCCNC(=N)N)NC(=O)[C@H](CCC(N)=O)NC(=O)[C@H](CC(=O)O)NC(=O)[C@H](CC(C)C)NC(=O)[C@@H]1CCCN1C(=O)[C@H](CCC(=O)O)NC(=O)[C@@H]1CCCN1C(=O)[C@H](CCCNC(=N)N)NC(=O)CNC(=O)[C@@H](N)CCCCN)C(=O)N[C@@H](Cc1c[nH]c2ccccc12)C(=O)N[C@@H](CCCCN)C(=O)N[C@@H](Cc1c[nH]cn1)C(=O)N[C@H](C(=O)NCC(=O)NCC(=O)NCC(=O)N[C@@H](CC(=O)O)C(=O)N[C@@H](Cc1ccc(OS(=O)(=O)O)cc1)C(=O)N1CCC[C@H]1C(=O)N1CCC[C@H]1C(=O)N1CCC[C@H]1C(=O)NCC(=O)N[C@@H](C)C(=O)N[C@@H](CC(N)=O)C(=O)N1CCC[C@H]1C(=O)N[C@@H](CCCCN)C(=O)N[C@@H](Cc1c[nH]cn1)C(=O)N[C@@H](CC(=O)O)C(=O)N1CCC[C@H]1C(=O)N1CCC[C@H]1C(=O)N1CCC[C@H]1C(=O)N[C@@H](CCCNC(=N)N)C(=O)N[C@@H](CC(N)=O)C(=O)N1CCC[C@H]1C(=O)NCC(=O)N[C@@H](Cc1c[nH]cn1)C(=O)N[C@@H](Cc1c[nH]cn1)C(=O)O)C(C)C [RaxX39-sY]
XA21 [1]
  XA21-mediated defense responses (ability to activate XA21-dependent signaling): trigger XA21-mediated defense responses
XA21 [3]
  defense gene expression (PR10b and Os06g37224): triggers defense gene expression in an XA21-dependent manner; also recorded: activates XA21-mediated defense gene expression

## LWKHVGGGDY^SPPSGPNTKHDPPPP [RaxX24-Xoc-sY]
Arabidopsis seedlings [2]
  root growth promotion: promoted root growth on Arabidopsis seedlings in a manner similar to that of RaxX21-sY; also recorded: still capable of inducing root growth

## CC(C)[C@H](NC(=O)[C@@H](N)Cc1c[nH]cn1)C(=O)NCC(=O)NCC(=O)NCC(=O)N[C@@H](CC(=O)O)C(=O)N[C@@H](Cc1ccc(OS(=O)(=O)O)cc1)C(=O)N1CCC[C@H]1C(=O)N1CCC[C@H]1C(=O)N1CCC[C@H]1C(=O)NCC(=O)N[C@@H](C)C(=O)N[C@@H](CC(N)=O)C(=O)N1CCC[C@H]1C(=O)N[C@@H](CCCCN)C(=O)N[C@@H](Cc1c[nH]cn1)C(=O)N[C@@H](CC(=O)O)C(=O)N1CCC[C@H]1C(=O)N1CCC[C@H]1C(=O)N1CCC[C@H]1C(=O)N[C@@H](CCCNC(=N)N)C(=O)O [RaxX21-sY, HVGGGDY^SPPPGANPKHDPPPR] (H-HVGGGD[sY]PPPGANPKHDPPPR-OH)
XA21 [1]
  ROS production: significant RaxX21-sY-mediated upregulation of defense gene expression and ROS production; also recorded: induced ROS production and defense gene expression changes; also recorded: activates the production of ROS
  ROS production over 90 min: triggered a ROS response characteristic of the XA21-mediated immune response
  XA21-mediated defense responses (ability to activate XA21-dependent signaling): trigger XA21-mediated defense responses
  total ROS production over 3 h: retained the ability to induce XA21-dependent signaling; also recorded: able to activate
tpst-1 seedlings
  root growth rate: increased root growth rate
XA21 [4]
  ethylene production: able to activate
XA21 [3]
  defense gene expression: significant RaxX21-sY-mediated upregulation of defense gene expression and ROS production; also recorded: activates gene expression
  defense gene induction (Os06g37224): induced ROS production and defense gene expression changes
  defense marker gene expression (Os04g10100, PR10b, Os12g36830, Os06g37224), temporal changes: able to activate; also recorded: sufficient to activate XA21-mediated defense gene expression
Arabidopsis seedlings [2]
  average root length: 61 mm
  dose dependent activity on root growth: effective at inducing root growth at concentrations in the low nanomolar range
  root growth promotion: promoted root growth in a similar manner to that observed for AtPSY1; also recorded: promotes root growth in Arabidopsis and rice
  root length: statistically longer root lengths
Rice seedlings
  root growth: significantly enhanced root growth; also recorded: promotes root growth in Arabidopsis and rice
  root length: significantly longer roots
Arabidopsis seedlings [5]
  effect on elf18-triggered growth inhibition: do not prevent elf18-triggered growth inhibition

## DY^SPAPGANPRHNPKRPPG [OsPSY1a, reference compound]
XA21 [1]
  ROS production over 90 min: failed to induce ROS production

## DY^SPPPGANPKHDPPPR [RaxX16-sY]
XA21 [1]
  ROS production over 90 min: triggered a ROS response characteristic of the XA21-mediated immune response; also recorded: able to recognize
Arabidopsis seedlings [2]
  root growth promotion: still capable of promoting root growth
Rice seedlings
  root growth: still capable of promoting root growth

## DY^SPPPGANPKHDP [RaxX13-sY]
XA21 [1]
  ROS production over 90 min: did not induce ROS production
Arabidopsis seedlings [2]
  root growth promotion: still capable of promoting root growth
Rice seedlings
  root growth: still capable of promoting root growth

## DY^SGDPSANPKHDPGVPPS [AtPSY1, reference compound]
XA21 [1]
  ROS production over 90 min: failed to induce ROS production
tpst-1 seedlings
  root growth rate: increased root growth rate
Arabidopsis seedlings [2]
  dose dependent activity on root growth: less active than RaxX21-sY and PSK
  root growth: increased root growth in a similar manner to that observed for treatment of wild type Col-0 seedlings; also recorded: also responds
Rice seedlings
  root growth: significantly enhanced root growth
Arabidopsis seedlings [5]
  effect on elf18-triggered growth inhibition: do not prevent elf18-triggered growth inhibition

## LWKHVGGGDY^SAPPGSNDRHDPPKP [RaxX24-Xcm-sY]
Arabidopsis seedlings [2]
  root growth promotion: promoted root growth on Arabidopsis seedlings in a manner similar to that of RaxX21-sY

## KGRPEPLDQRLWKHVGGGDYPPPGANPKHDPPPRNPGHH [RaxX39-Y]
XA21 [3]
  defense gene expression (PR10b and Os06g37224): does not

## HVGGGDYPPPGANPKHDPPPR [RaxX21-Y]
XA21 [4]
  ethylene production: not
Arabidopsis seedlings [2]
  dose dependent activity on root growth: promoted root growth, but was less active than the sulfated version

## LWKHVGGGDYPPPGANPK [RaxX18-sY]
XA21 [1]
  ROS production dose response (activity): completely inactive
  XA21-mediated defense responses (ability to activate XA21-dependent signaling): do not
  total ROS production over 3 h: compromised in this activity

## Y^SIY^STQ [PSK, reference compound]
XA21 [1]
  ROS production over 90 min: failed to activate XA21-mediated immune response
Arabidopsis seedlings [2]
  dose dependent activity on root growth: comparable
Arabidopsis seedlings [5]
  effect on elf18-triggered growth inhibition: attenuates elf18-mediated growth inhibition

— US10407691B2 (priority 2014, dated 2019)
